What was measured:
[1] = test system: wildtype Wnt signaling cascade; experiment: HEK293 TOP Assay (Super TopFlash luciferase reporter, Wnt-3a stimulated); format: cell-based; settings: Homo sapiens, HEK293, 16 h, HEK293 TOP reporter cell line, Wnt-3a at EC50, 16 hours incubation, compound dilution series 50 μM to 15 nM
How it was run: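 HEK293 cells stably carrying Super TopFlash (TOP) or FOP reporter, stimulated with recombinant human Wnt-3a (2500–5 ng/ml, two-fold steps). Both lines incubated in parallel with compound from 50 μM to 15 nM (3.16-fold) in CAFTY buffer pH 7.4 with 2 mM Ca2+ and 0.01% BSA; selectivity judged TOP vs FOP.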

TNKS2 = biological target: T1, TNKS2 (Homo sapiens, UniProt Q9H2K2); experiment: Modified TNKS2 Assay 3 (BPS kit #80578, biotin-NAD+, 96 well); format: biochemical; settings: human TNKS2, BPS kit #80578, 96 well
T1 sequence (Q9H2K2 1-1166): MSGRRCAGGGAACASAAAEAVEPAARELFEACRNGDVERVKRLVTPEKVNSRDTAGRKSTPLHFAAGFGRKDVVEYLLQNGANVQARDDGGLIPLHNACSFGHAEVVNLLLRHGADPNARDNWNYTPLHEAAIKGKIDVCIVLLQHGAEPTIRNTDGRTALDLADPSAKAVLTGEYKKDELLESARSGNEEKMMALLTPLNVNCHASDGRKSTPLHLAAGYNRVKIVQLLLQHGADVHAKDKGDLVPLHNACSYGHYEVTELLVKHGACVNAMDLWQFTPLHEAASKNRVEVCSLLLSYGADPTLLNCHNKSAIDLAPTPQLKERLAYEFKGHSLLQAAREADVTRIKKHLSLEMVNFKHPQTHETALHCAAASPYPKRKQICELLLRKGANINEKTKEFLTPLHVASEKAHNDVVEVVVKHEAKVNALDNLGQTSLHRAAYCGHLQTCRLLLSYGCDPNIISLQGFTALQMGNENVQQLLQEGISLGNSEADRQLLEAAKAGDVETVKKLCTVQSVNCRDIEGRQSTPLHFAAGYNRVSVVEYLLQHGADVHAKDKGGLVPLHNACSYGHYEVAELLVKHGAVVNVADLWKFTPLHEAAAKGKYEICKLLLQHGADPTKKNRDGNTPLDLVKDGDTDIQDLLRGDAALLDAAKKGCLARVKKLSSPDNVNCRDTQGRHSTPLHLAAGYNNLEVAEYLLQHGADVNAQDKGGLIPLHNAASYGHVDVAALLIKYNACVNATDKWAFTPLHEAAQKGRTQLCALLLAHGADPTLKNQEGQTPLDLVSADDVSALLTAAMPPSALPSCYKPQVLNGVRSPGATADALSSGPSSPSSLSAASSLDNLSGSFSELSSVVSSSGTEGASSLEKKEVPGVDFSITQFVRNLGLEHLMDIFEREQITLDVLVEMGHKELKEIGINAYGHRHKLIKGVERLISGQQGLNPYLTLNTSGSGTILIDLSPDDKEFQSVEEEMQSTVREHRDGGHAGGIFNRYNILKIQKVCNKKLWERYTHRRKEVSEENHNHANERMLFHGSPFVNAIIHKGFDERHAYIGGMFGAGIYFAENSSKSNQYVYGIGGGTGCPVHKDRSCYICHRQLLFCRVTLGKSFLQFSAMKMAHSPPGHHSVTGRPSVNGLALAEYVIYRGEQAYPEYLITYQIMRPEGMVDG
How it was run: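 Commercial kit assay measuring TNKS2-catalysed incorporation of biotin-labelled NAD+ into a protein substrate, detected by streptavidin-HRP chemiluminescence. Run per manufacturer's protocol; IC50 is the concentration halving the normalised signal.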

IC50 [1]: 60 nM
IC50 (TNKS2): 4 nM
Structure (SMILES): O=C(Nc1ccc(NC(=O)c2[nH]cnc2C(=O)NCCN2CCCCC2)cn1)c1ccc(F)cc1Cl [Example 110, N^5-{6-[(2-chloro-4-fluorobenzoyl)amino]pyridin-3-yl}-N^4-[2-(piperidin-1-yl)ethyl]-1H-imidazole-4,5-dicarboxamide]

Source: patent US9884063B2, “Amido-substituted azole compounds” (Bayer Pharma Aktiengesellschaft, priority 2014, dated 2018)
